US12084451B2, “Compositions and methods for reducing tactile dysfunction, anxiety, and social impairment” (President and Fellows of Harvard College, priority 2018, dated 2024)
Several values for one entry are separate records, joined by “and”; a condition that tells them apart may be missing. Equal values may be shown once. Read-outs that look alike come from different tables or passages of the source.

Tests used:
Assay type in all cases: cell-based
hGABAA α1β3γ2 [1] = biological target: T1, hGABAA α1β3γ2 (Homo sapiens, UniProt P14867+P18507+P28472); test: hGABAA IonFlux HT PAM Assay, α1β3γ2; conditions: for Mean Maximal Effect (% of Control): normalized to baseline peak current induced by EC20 GABA (1 μM) for 2 seconds; for EC50: Estimated EC50, positive modulation of EC20 GABA current
Excerpt: (§1) Ligand-gated ion channels targeted were hGABAA α1β3γ2 and hGABAA α2β3γ2.
(§2) Electrophysiological assays conducted to profile nine (9) compounds for activities on the on channel targets listed above for Positive Allosteric Modulator (PAM) activities using the IonFlux HT electrophysiological platform.
The parameters measured are described in the Data Analysis section.
(§3) All wells included a final DMSO concentration of 0.33% including all control wells.
(§4) All recordings were obtained from a holding potential of −60 mV. The compound addition sequence that was used for all additions was the same for all assays. […] The process was repeated with the next ascending concentration of test compound (FIG. 1).
(§5) All data were first exported to an Excel compatible data file and then analyzed using Graph Pad Prism software.

hGABAA α2β3γ2 = hGABAA α2β3γ2 (Homo sapiens, UniProt P18507+P28472+P47869); test: hGABAA IonFlux HT PAM Assay, α2β3γ2; conditions: for Mean Maximal Effect (% of Control): normalized to baseline peak current induced by EC20 GABA (0.8 μM) for 2 seconds
Excerpt: as §1, §2
The parameters measured are described in the Data Analysis section. […] Open circles represent data that has been excluded from the curve fitting. Where no curve fit was possible, n/c (not calculable) is listed.
as §3, §4, §5

hGABAA α1β3γ2 [2] = biological target: T1, hGABAA α1β3γ2; test: hGABAA α1β3γ2 IonFlux HT Agonist Assay; set-up: activation of hGABAA α1β3γ2 ion channel currents / activation: dose or concentration left out as unconfirmed; conditions: for activation / activation at 0.3 µM / activation at 1 µM / activation at 3 µM / activation at 10 µM / activation at 30 µM / activation at 100 µM / activation at 300 µM: read-out: Normalized Percentage Activation Mean
Method: Ligand-gated ion channel targets were hGABAA α2β3γ2 and hGABAA α1β3γ2. Electrophysiological assays conducted to profile two compounds for agonist activities on hGABAA α2β3γ2 and seven compounds for agonist activities on hGABAA α1β3γ2 using the IonFlux HT electrophysiological platform.
The parameters measured are described in the Data Analysis section. […] Note: The test compounds was applied over two (2) ‘experimental patterns’ in increasing concentrations.
The supplied compound was prepared in DMSO to concentrations that were 300× the final assay concentrations. Aliquots were taken out and diluted 300× into external buffer to give the final assay concentration. At wells included a final DMSO concentration of 0.33% including all control wets.
All recordings were obtained from a holding potential of −60 mV. The compound addition sequence that was used for all additions was the same for all assays. […] Each test concentration of compound was applied for 2 seconds followed by 60 seconds wash. The process was repeated with the next ascending concentration of test compound. The test compounds were applied over two (2) ‘experimental patterns’ in increasing concentrations (FIG. 11).
AM data were first exported to an Excel compatible data file and then analyzed using Graph Pad Prism software.

[3] = positive modulation of EC20 GABA current

T1 sequence (P14867 28-456): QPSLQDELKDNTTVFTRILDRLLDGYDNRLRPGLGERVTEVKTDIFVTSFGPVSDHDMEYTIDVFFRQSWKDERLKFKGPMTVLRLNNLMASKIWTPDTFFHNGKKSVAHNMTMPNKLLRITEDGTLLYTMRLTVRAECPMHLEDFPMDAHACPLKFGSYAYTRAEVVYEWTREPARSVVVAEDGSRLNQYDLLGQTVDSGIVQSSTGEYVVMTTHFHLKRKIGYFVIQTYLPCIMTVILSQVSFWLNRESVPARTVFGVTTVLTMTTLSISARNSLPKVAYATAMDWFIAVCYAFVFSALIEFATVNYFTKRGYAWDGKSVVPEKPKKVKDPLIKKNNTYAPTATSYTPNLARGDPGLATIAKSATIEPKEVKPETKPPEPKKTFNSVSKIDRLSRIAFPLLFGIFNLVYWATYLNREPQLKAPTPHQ
T1 sequence (P28472 26-473): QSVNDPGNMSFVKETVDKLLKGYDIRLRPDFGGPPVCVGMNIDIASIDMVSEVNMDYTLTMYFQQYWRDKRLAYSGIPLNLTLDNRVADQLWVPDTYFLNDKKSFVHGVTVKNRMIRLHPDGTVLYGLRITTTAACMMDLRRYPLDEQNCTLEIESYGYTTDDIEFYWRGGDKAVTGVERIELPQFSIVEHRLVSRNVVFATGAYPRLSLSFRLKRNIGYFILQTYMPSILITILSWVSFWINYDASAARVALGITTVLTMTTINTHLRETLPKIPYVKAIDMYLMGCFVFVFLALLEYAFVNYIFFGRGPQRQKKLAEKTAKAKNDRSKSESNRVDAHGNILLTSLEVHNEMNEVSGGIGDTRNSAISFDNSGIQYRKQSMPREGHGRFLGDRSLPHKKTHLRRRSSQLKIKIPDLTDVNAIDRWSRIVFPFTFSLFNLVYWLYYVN
T1 sequence (P18507 40-475): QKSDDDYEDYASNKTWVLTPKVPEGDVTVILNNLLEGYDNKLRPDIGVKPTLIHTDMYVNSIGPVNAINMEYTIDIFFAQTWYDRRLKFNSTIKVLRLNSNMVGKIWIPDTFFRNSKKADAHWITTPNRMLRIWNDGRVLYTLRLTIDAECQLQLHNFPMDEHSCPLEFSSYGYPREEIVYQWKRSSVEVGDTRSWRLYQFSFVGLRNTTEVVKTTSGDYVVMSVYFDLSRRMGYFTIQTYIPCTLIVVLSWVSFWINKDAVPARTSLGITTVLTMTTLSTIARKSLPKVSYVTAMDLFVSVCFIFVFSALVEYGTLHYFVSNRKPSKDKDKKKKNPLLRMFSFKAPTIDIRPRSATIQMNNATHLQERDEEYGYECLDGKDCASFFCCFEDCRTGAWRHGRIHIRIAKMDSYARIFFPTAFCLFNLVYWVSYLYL
Sequence of hGABAA α2β3γ2 (P47869 29-451): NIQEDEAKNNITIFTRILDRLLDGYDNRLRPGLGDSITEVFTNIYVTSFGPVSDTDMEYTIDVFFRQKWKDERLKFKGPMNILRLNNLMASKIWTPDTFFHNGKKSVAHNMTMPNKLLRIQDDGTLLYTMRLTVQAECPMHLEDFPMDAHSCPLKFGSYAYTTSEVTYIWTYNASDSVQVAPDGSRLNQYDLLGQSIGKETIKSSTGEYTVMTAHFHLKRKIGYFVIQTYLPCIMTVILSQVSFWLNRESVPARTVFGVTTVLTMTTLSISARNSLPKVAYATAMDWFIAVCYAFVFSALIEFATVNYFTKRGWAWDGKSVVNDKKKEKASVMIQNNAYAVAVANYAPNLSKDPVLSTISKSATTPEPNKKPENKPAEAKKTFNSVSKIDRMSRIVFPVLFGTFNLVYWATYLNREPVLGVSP
Sequence of hGABAA α2β3γ2 (P28472 26-473): as the sequence (P28472 26-473) above
Sequence of hGABAA α2β3γ2 (P18507 40-475): as the sequence (P18507 40-475) above

## CN1C(=O)CN=C(c2ccccc2)c2cc(Cl)ccc21 [Diazepam]
hGABAA α1β3γ2 [1]; 0.003 μM + EC20 GABA
  (%) Control mean: 124.0 % Control and 122.6 % Control and 125.3 % Control
  (%) Control n1: 123.6 % Control and 125.3 % Control and 121.6 % Control
  (%) Control n2: 124.3 % Control and 119.9 % Control and 129.0 % Control
hGABAA α1β3γ2 [1]; 0.01 μM + EC20 GABA
  (%) Control mean: 148.4 % Control and 139.6 % Control and 149.7 % Control
  (%) Control n1: 149.5 % Control and 141.4 % Control and 137.2 % Control
  (%) Control n2: 147.2 % Control and 137.8 % Control and 162.2 % Control
hGABAA α1β3γ2 [1]; 0.03 μM + EC20 GABA
  (%) Control mean: 186.5 % Control and 171.8 % Control and 193.2 % Control
  (%) Control n1: 182.7 % Control and 182.4 % Control and 169.0 % Control
  (%) Control n2: 190.3 % Control and 161.2 % Control and 217.4 % Control
hGABAA α1β3γ2 [1]; 0.1 μM + EC20 GABA
  (%) Control mean: 250.0 % Control and 234.6 % Control and 223.1 % Control
  (%) Control n1: 230.0 % Control and 227.4 % Control and 232.1 % Control
  (%) Control n2: 269.9 % Control and 241.8 % Control and 214.1 % Control
hGABAA α1β3γ2 [1]; 0.3 μM + EC20 GABA
  (%) Control mean: 298.9 % Control and 284.3 % Control and 269.3 % Control
  (%) Control n1: 265.9 % Control and 275.1 % Control and 262.8 % Control
  (%) Control n2: 331.8 % Control and 293.6 % Control and 275.8 % Control
hGABAA α1β3γ2 [1]; 1 μM + EC20 GABA
  (%) Control mean: 317.0 % Control and 310.4 % Control and 314.3 % Control
  (%) Control n1: 284.9 % Control and 296.1 % Control and 284.8 % Control
  (%) Control n2: 349.1 % Control and 324.7 % Control and 343.8 % Control
hGABAA α1β3γ2 [1]
  Mean Maximal Effect (% of Control): 317 % of Control and 310 % of Control and 314 % of Control
hGABAA α2β3γ2; 0.003 μM + EC20 GABA
  (%) Control mean: 116.0 % Control and 114.8 % Control and 100.4 % Control
  (%) Control n1: 113.8 % Control and 112.4 % Control and 113.2 % Control
  (%) Control n2: 118.1 % Control and 117.2 % Control and 87.7 % Control
hGABAA α2β3γ2; 0.01 μM + EC20 GABA
  (%) Control mean: 135.3 % Control and 124.0 % Control and 118.1 % Control
  (%) Control n1: 131.2 % Control and 123.3 % Control and 122.4 % Control
  (%) Control n2: 139.3 % Control and 124.7 % Control and 113.8 % Control
hGABAA α2β3γ2; 0.03 μM + EC20 GABA
  (%) Control mean: 162.5 % Control and 158.2 % Control and 142.3 % Control
  (%) Control n1: 155.2 % Control and 156.2 % Control and 150.5 % Control
  (%) Control n2: 169.9 % Control and 160.3 % Control and 134.2 % Control
hGABAA α2β3γ2; 0.1 μM + EC20 GABA
  (%) Control mean: 252.4 % Control and 255.8 % Control and 206.0 % Control
  (%) Control n1: 261.1 % Control and 261.6 % Control and 216.8 % Control
  (%) Control n2: 243.8 % Control and 249.9 % Control and 195.1 % Control
hGABAA α2β3γ2; 0.3 μM + EC20 GABA
  (%) Control mean: 253.5 % Control and 261.6 % Control and 214.1 % Control
  (%) Control n1: 267.8 % Control and 260.9 % Control and 230.4 % Control
  (%) Control n2: 239.3 % Control and 262.3 % Control and 197.8 % Control
hGABAA α2β3γ2; 1 μM + EC20 GABA
  (%) Control mean: 262.3 % Control and 269.3 % Control and 224.3 % Control
  (%) Control n1: 274.0 % Control and 285.9 % Control and 235.0 % Control
  (%) Control n2: 250.6 % Control and 252.8 % Control and 213.6 % Control
hGABAA α2β3γ2
  Mean Maximal Effect (% of Control): 262 % of Control and 269 % of Control and 224 % of Control

## CN(C)CCN(C)C(=O)CC1c2nccnc2C(=O)N1c1ccc(Cl)cn1 (stereo not shown) [Compound 6]
hGABAA α1β3γ2 [1]
  Mean Maximal Effect (% of Control): 130 % of Control
hGABAA α1β3γ2 [1]; [3]
  Estimated EC50: n/c
hGABAA α1β3γ2 [2]
  activation of hGABAA α1β3γ2 ion channel currents: did not activate
  activation: 2.08%
  activation at 0.3 µM: 1.59%
  activation at 1 µM: 2.06%
  activation at 3 µM: 1.9%
  activation at 10 µM: 1.89%
  activation at 30 µM: 1.74%
  activation at 100 µM: 1.95%
  activation at 300 µM: 2.19%
hGABAA α1β3γ2 [2]; agonist activation of channel currents, read-out: Estimated EC50
  EC50: > 1000 µM
hGABAA α2β3γ2
  Mean Maximal Effect (% of Control): 122 % of Control
hGABAA α2β3γ2; [3]
  Estimated EC50: n/c

## CCCN(CCNC)C(=O)Cc1c(-c2ccc(Cl)cc2)nc2ccc(Cl)cn12 [Compound 3]
hGABAA α1β3γ2 [1]
  EC50: 0.081 µM
  Mean Maximal Effect (% of Control): 331 % of Control
hGABAA α1β3γ2 [2]
  EC50: > 1000 µM
  activation of hGABAA α1β3γ2 ion channel currents: did not activate
  activation: 3.53%
  activation at 0.3 µM: 1.99%
  activation at 1 µM: 1.9%
  activation at 3 µM: 2.32%
  activation at 10 µM: 6.3%
  activation at 30 µM: 2.98%
  activation at 100 µM: 3.63%
  activation at 300 µM: 8.78%
hGABAA α2β3γ2
  Mean Maximal Effect (% of Control): 240 % of Control
hGABAA α2β3γ2; positive modulation of EC20 GABA current, read-out: Estimated EC50
  EC50: 1.1 µM

## CN1CCN(C(=O)O[C@H]2c3nccnc3C(=O)N2c2ccc(Cl)cn2)CC1 [Eszopiclone]
hGABAA α1β3γ2 [1]; 0.001 μM + EC20 GABA
  (%) Control mean: 105.7 % Control
  (%) Control n1: 97.8 % Control
  (%) Control n2: 113.5 % Control
hGABAA α1β3γ2 [1]; 0.01 μM + EC20 GABA
  (%) Control mean: 140.3 % Control
  (%) Control n1: 132.0 % Control
  (%) Control n2: 148.7 % Control
hGABAA α1β3γ2 [1]; 0.1 μM + EC20 GABA
  (%) Control mean: 252.4 % Control
  (%) Control n1: 242.3 % Control
  (%) Control n2: 262.5 % Control
hGABAA α1β3γ2 [1]; 1 μM + EC20 GABA
  (%) Control mean: 247.6 % Control
  (%) Control n1: 267.4 % Control
  (%) Control n2: 227.7 % Control
hGABAA α1β3γ2 [1]; 10 μM + EC20 GABA
  (%) Control mean: 252.4 % Control
  (%) Control n1: 262.3 % Control
  (%) Control n2: 242.5 % Control
hGABAA α1β3γ2 [1]; 100 μM + EC20 GABA
  (%) Control mean: 234.7 % Control
  (%) Control n1: 258.5 % Control
  (%) Control n2: 210.8 % Control
hGABAA α1β3γ2 [1]
  EC50: 0.012 µM
  Mean Maximal Effect (% of Control): 252 % of Control
hGABAA α2β3γ2; Estimated EC50, positive modulation of EC20 GABA current
  EC50: 0.164 µM
hGABAA α2β3γ2
  Mean Maximal Effect (% of Control): 213 % of Control
